Assay results taken from publication PMC6362038, “Secondary structures and cell-penetrating abilities of arginine-rich peptide foldamers” (Scientific Reports, 2019).
Numbered stars: 1 amine (or outer) side, 2 acyl side, 3 side chain; on linkers, the order of the positions; unused ones are H or OH. Square brackets hold non-standard residues; d marks the D form. Peptide text beside a SMILES is read from it. * marks the point of attachment. 5FAM = O=C1OC2(c3ccc(O)cc3Oc3cc(O)ccc32)c2ccc(C(=O)*)cc21; X1 = CO[C@H]1CC(N[*:1])(C(=O)[*:2])C[C@@H]1OC; αMeL = CC(C)C[C@](C)(N)C(=O)O; Ac5c = NC1(C(=O)O)CCCC1

Legend:
[1] = system: CHO-K1 cells; experiment: Inhibition of cellular uptake by specific endocytosis inhibitors; type: cell-based; details: 30 min pre-incubation 37 °C, 1 µM peptide, 1 h, flow cytometry, n = 3; for uptake in presence of nystatin (caveolae-mediated endocytosis inhibitor): CHO-K1, nystatin 25 µg/mL; for uptake in presence of sucrose (clathrin-mediated endocytosis inhibitor): CHO-K1, sucrose 0.4 M
Method: To obtain further information on the cellular uptake mechanisms of peptides, inhibitory experiments were carried out using specific endocytosis inhibitors (amilorilde: macropinocytosis; sucrose: clathrin-mediated endocytosis; nystatin: caveolae-mediated endocytosis) against CHO-K1 cells (Fig. S5). […] (αMe)Leu peptide appeared to internalize into CHO-K1 cells via all three routes, while Ac5c peptide appeared to internalize mainly via clathrin-mediated endocytosis and caveolae-mediated endocytosis.
CHO-K1 cells were seeded on 24-well culture plates (100,000 cells/well) and incubated in 400 µL of DMEM containing 10% FBS. The medium was then replaced with fresh medium containing 10% FBS in the absence (untreated) or presence of amiloride (5 mM), sucrose (0.4 M), or nystatin (25 µg/mL), cells were pre-incubated at 37 °C for 30 min. A peptide solution was added to each well at a concentration of 1 µM. The medium was removed after 1-h incubation and subsequent operations were conducted in the same manner as cellular uptake experiments.
A c5cAc5c (aMe L e uMe)Leu untreated ami loride su cro se n ystatin
Figure S5. Effects of inhibitors on internalization of peptides against CHO-K1 cells. Error bars represent the standard deviation, n = 3. *P < 0.05, **P < 0.01.

[2] = Resistance to protease digestion with pronase; type: in vitro ADME, Streptomyces griseus; details: 10 µM peptide in 2.5 × 10^−6 w/v% pronase/PBS, 37 °C, RP-HPLC, α-CHCA internal standard, read-out: intact peptide after incubation with pronase
Description: (§1) Next, we examined the stability of peptides against protease digestion using trypsin (Fig. 4a) and pronase (Fig. 4b). One of the advantages of peptide foldamers containing dAAs is their high resistance to degradation by proteases[38]–[40]. Trypsin is a serine protease that cleaves amide bonds at the C terminus of cationic amino acids such as Arg and lysine. Pronase is a non-specific protease mixture produced in the culture supernatant of Streptomyces griseus. Ac5c, Ac5c^dOM, (αMe)Leu, and Leu peptides were incubated with trypsin or pronase for 1, 2, and 4 h, and then rate of intact peptide was evaluated by RP-HPLC using α-cyano-4-hydroxycinnamic acid (α-CHCA) as an internal standard. Leu peptide was promptly degraded by both trypsin and pronase, and reached 0% intact peptide after 4 h incubation in a similar manner to Arg peptide reported previously[24],[25]. On the other hand, approximately 80% of Ac5c, Ac5c^dOM, and (αMe)Leu peptides remained intact even after 4 h incubation. Introduction of dAAs into peptides markedly elevated resistance to protease digestion, whether or not peptides formed stable helical structures. In other words, peptides composed of only natural α-amino acids were easily degraded by proteases independently of their peptide secondary structures.
(§2) One-hundred microliters of peptide solution (10 µM) in 2.5 × 10^−6 w/v% trypsin or pronase/phosphate buffer saline (PBS) was incubated at 37 °C for 0, 1, 2, and 4 h. After each incubation time, 250 µL of 1% TFA/PBS solution was added to inactivate the proteases, and 50 µL of 1/2 diluted saturated α-CHCA solution was added as an internal standard, followed by HPLC analysis, which was performed using the above-mentioned conditions.

[3] = Resistance to protease digestion with trypsin; type: in vitro ADME; details: 10 µM peptide in 2.5 × 10^−6 w/v% trypsin/PBS, 37 °C, RP-HPLC, α-CHCA internal standard, read-out: intact peptide after incubation with trypsin
Description: as §1, §2

CC(C)C[C@](C)(NC(=O)[C@H](CCCNC(=N)N)NC(=O)[C@H](CCCNC(=N)N)NC(=O)[C@](C)(CC(C)C)NC(=O)[C@H](CCCNC(=N)N)NC(=O)[C@H](CCCNC(=N)N)NC(=O)[C@](C)(CC(C)C)NC(=O)[C@H](CCCNC(=N)N)NC(=O)[C@H](CCCNC(=N)N)NC(=O)CNC(=O)c1ccc2c(c1)C(=O)OC21c2ccc(O)cc2Oc2cc(O)ccc21)C(N)=O [(αMe)Leu peptide] (5FAM-GRR[αMeL]RR[αMeL]RR[αMeL]-NH2)
uptake in presence of nystatin (caveolae-mediated endocytosis inhibitor) [1]: significantly decreased
uptake in presence of sucrose (clathrin-mediated endocytosis inhibitor) [1]: significantly decreased
remaining at 4 h, 10 µM [2]: ~80%
remaining at 4 h, 10 µM [3]: ~80%

N=C(N)NCCC[C@H](NC(=O)CNC(=O)c1ccc2c(c1)C(=O)OC21c2ccc(O)cc2Oc2cc(O)ccc21)C(=O)N[C@@H](CCCNC(=N)N)C(=O)NC1(C(=O)N[C@@H](CCCNC(=N)N)C(=O)N[C@@H](CCCNC(=N)N)C(=O)NC2(C(=O)N[C@@H](CCCNC(=N)N)C(=O)N[C@@H](CCCNC(=N)N)C(=O)NC3(C(N)=O)CCCC3)CCCC2)CCCC1 [Ac5c peptide] (5FAM-GRR[Ac5c]RR[Ac5c]RR[Ac5c]-NH2)
uptake in presence of amiloride (macropinocytosis inhibitor) ([1]; CHO-K1, amiloride 5 mM): significantly decreased
uptake in presence of nystatin (caveolae-mediated endocytosis inhibitor) [1]: significantly decreased
uptake in presence of sucrose (clathrin-mediated endocytosis inhibitor) [1]: significantly decreased
remaining at 4 h, 10 µM [2]: ~80%
remaining at 4 h, 10 µM [3]: ~80%

CO[C@H]1CC(NC(=O)[C@H](CCCNC(=N)N)NC(=O)[C@H](CCCNC(=N)N)NC(=O)C2(NC(=O)[C@H](CCCNC(=N)N)NC(=O)[C@H](CCCNC(=N)N)NC(=O)C3(NC(=O)[C@H](CCCNC(=N)N)NC(=O)[C@H](CCCNC(=N)N)NC(=O)CNC(=O)c4ccc5c(c4)C(=O)OC54c5ccc(O)cc5Oc5cc(O)ccc54)C[C@H](OC)[C@@H](OC)C3)C[C@H](OC)[C@@H](OC)C2)(C(N)=O)C[C@@H]1OC [Ac5c^dOM peptide] (5FAM-GRR[X1]RR[X1]RR[X1]-NH2)
remaining at 4 h, 10 µM [2]: ~80%
remaining at 4 h, 10 µM [3]: ~80%
